Like-named read-outs stand apart in the source and are kept apart here. Where only a bound is given, the exact number is not on record here.

Our source for the AC50 and IC50 values is patent US10774071B2, “PD-1/PD-L1 inhibitors” (Gilead Sciences, Inc., priority 2018, dated 2020).

In one assay the target is PD-L1 (Homo sapiens (Human), UniProt Q9NZQ7). The assay can be described thus: PD-L1/PD-L1 dimerization biochemical protein-protein interaction assay (ALPHA). In kind it is binding. The note with it: read-out: AC50 PDL1 Dimer 1 nM.
Chain of PD-L1 (Q9NZQ7 19-238): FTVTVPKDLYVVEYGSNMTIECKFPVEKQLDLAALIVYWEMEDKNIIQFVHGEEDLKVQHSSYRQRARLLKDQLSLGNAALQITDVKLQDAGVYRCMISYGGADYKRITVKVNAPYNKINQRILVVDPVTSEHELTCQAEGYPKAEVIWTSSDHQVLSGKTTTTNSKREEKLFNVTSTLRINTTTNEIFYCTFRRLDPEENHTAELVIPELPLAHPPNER
Chain of PD-L1 (Q9NZQ7 19-238): as above
Another assay deals with PD-1/PD-L1 (Homo sapiens (Human), UniProt Q9NZQ7). The assay can be described thus: PD-1/PD-L1 biochemical protein-protein interaction assay (ALPHA). The note with it: read-out: IC50 PD-L1-PD1. Type of assay: binding. The protocol:
Compounds were tested in biochemical protein-protein interaction assays to determine if they can specifically block the interaction between the extracellular domains of PD-1/PD-L1 or CTLA/CD80. Binding of the protein pairs is measured using a bead based Amplified Luminescent Proximity Homogeneous Assay (ALPHA) platform. […] Final protein concentration in the assays were 0.3 nM (His tagged PD-L1), 2.5 nM (biotinylated Fc-PD-1), 1 nM (His tagged CTLA4) and 1 nM (biotinylated CD80).

The mark [1] stands for this setting: 0.5 nM His tagged PD-L1 and 0.5 nM FLAG tagged PD-L1, Table 4B.
Where [2] appears, read: 0.3 nM His tagged PD-L1, 2.5 nM biotinylated Fc-PD-1, Table 3B.
The mark [3] stands for this setting: 0.5 nM His tagged PD-L1 and 0.5 nM FLAG tagged PD-L1, Table 4A.
Setting [4] is: 0.3 nM His tagged PD-L1, 2.5 nM biotinylated Fc-PD-1, readings of 0.064 nM are equal to or less than 0.064 nM.

Chain of PD-1/PD-L1 (Q9NZQ7 19-238): as above

With `COC[C@H](NCc1cc(C(F)(F)F)c(O[C@H]2CCc3c(-c4cccc(-c5ccc(CNC[C@@H]6CCC(=O)N6)c(OC)n5)c4Cl)cccc32)nc1OC)C(=O)O` [B-264], on PD-L1 (setting [1]), the AC50 (as a rule, the concentration at which the activity in the assay is half-maximal) was 6.55 nM. For the same molecule, at PD-1/PD-L1 (setting [2]), the IC50 (usually the midpoint of a concentration-inhibition curve) turned out to be 0.064 nM.
The like results for `COc1nc(-c2cccc(-c3cccc4c3CC[C@@H]4Oc3nc(OC)c(CN4CC5(C(=O)O)CCC4CC5)nc3Cl)c2Cl)cnc1CNC[C@@H]1CCC(=O)N1` [B-45] were, in that order, 20.2 nM and 0.064 nM.
The like results for `COc1nc(-c2cccc(-c3cccc4c3CC[C@@H]4Oc3nc(OCc4cncc(Cl)c4)c(CN4CC[C@H](C(=O)O)C4)cc3Cl)c2Cl)ccc1CNC[C@@H]1CCC(=O)N1` [B-49] were, in that order, 19.1 nM and 0.064 nM.
For `COc1cc(-c2cccc(-c3cccc4c3CC[C@@H]4Oc3nc(OC)c(CNC(C)(C)C(=O)O)cc3C(F)(F)F)c2Cl)ccc1CNC[C@@H]1CCC(=O)N1` [B-121], the AC50 on PD-L1 (setting [1]) amounted to 1.62 nM. Also, the IC50 on PD-1/PD-L1 (setting [2]) stood at 0.064 nM.
The like results for `COc1nc(-c2cccc(-c3cccc4c3CC[C@@H]4Oc3nc(OC)c(CN4CC5(C(=O)O)CCC4CC5)cc3Cl)c2Cl)ccc1CN1CC[C@@H](O)C1` [B-51] were, in that order, 27.5 nM and 0.064 nM.
Taken in the same sequence, the figures for `COc1nc(O[C@H]2CCc3c(-c4cccc(-c5cc(C)c(CN6CC(C)(O)C6)c(OC)n5)c4Cl)cccc32)c(Cl)cc1CN1CC(C(=O)O)C1` [B-59] were 107 nM and 0.113 nM.
Taken in the same sequence, the figures for `COc1nc(-c2cccc(-c3cccc4c3CC[C@@H]4Oc3nc(OC)c(CN4CC[C@@H](C(=O)N=S(C)(=O)N(CC(F)(F)F)CC(F)(F)F)C4)cc3Cl)c2Cl)ccc1CNC[C@@H]1CCC(=O)N1` (stereo partly shown) [B-160] were 309 nM and 0.54 nM.
Consider `CC[C@H](NCc1cc(C(F)(F)F)c(O[C@H]2CCc3c(-c4cccc(-c5ccc(CNC[C@@H]6CCC(=O)N6)c(OC)n5)c4Cl)cccc32)nc1OC)C(=O)O` [B-269], for which the AC50 at PD-L1 (setting [1]) is 6.13 nM. Moreover, the IC50 on PD-1/PD-L1 (setting [2]) came out at 0.064 nM.
Consider `COc1nc(-c2cccc(-c3cccc4c3CC[C@@H]4Nc3nc(OC)c(CNCCC(=O)O)nc3C(F)(F)F)c2Cl)ccc1CN[C@H]1C[C@](C)(O)C1` [A-93], for which the AC50 at PD-L1 (setting [3]) stood at 83 nM. Moreover, the IC50 at PD-1/PD-L1 (setting [4]) was no more than 0.064 nM.
`COc1nc(O[C@H]2CCc3c(-c4cccc(-c5cc(C)c(CN6C[C@@H]7[C@H](C6)[C@H]7C(=O)O)c(OC)n5)c4Cl)cccc32)c(Cl)cc1CNC[C@@H]1CCC(=O)N1` [B-124]: the AC50 at PD-L1 (setting [1]) was determined as 78.5 nM. For the same molecule, at PD-1/PD-L1 (setting [2]), the IC50 came out at 0.084 nM.
In the case of `COc1nc(-c2cccc(-c3cccc4c3CC[C@@H]4Nc3nc(OC)c(CN4CC[C@@H](C(=O)O)C4)nc3C(F)(F)F)c2Cl)ccc1CNC[C@@H]1CCC(=O)N1` [A-19], the AC50 on PD-L1 (setting [3]) was 26.1 nM. Further, the IC50 at PD-1/PD-L1 (setting [4]) was no more than 0.064 nM.
As for `CNc1nc(-c2cccc(-c3cccc4c3CC[C@@H]4Oc3nc(OC)c(CN4CC[C@@H](C(=O)O)C4)cc3Cl)c2Cl)cnc1CN1CC(C)(O)C1` [B-21], at PD-L1 (setting [1]), the AC50 was found to be 31.2 nM. Besides, on PD-1/PD-L1 (setting [2]), the IC50 turned out to be 0.064 nM.
As to `COc1nc(-c2cccc(-c3cccc4c3CC[C@@H]4Nc3nc(OC)c(CN4CCCC[C@@]4(C)C(=O)O)cc3C(F)(F)F)c2Cl)ccc1CN1CC(C)(O)C1` [A-52], at PD-L1 (setting [3]), the AC50 stood at 15.3 nM. The IC50 at PD-1/PD-L1 (setting [4]) was no more than 0.064 nM.
Consider `COc1nc(-c2cccc(-c3cccc4c3CC[C@@H]4Oc3nc(OC)c(CN[C@@H]4CCC[C@@H]4C(=O)O)cc3Cl)c2Cl)ccc1CNC[C@@H]1CCC(=O)N1` [B-53], for which the half-maximal activity concentration (AC50) on PD-L1 (setting [1]) amounted to 31.1 nM.
For the molecule `COc1nc(-c2cccc(-c3cccc4c3CC[C@@H]4Oc3nc(OC)c(CNC4(C(=O)O)CCOCC4)cc3Cl)c2Cl)ccc1CNC[C@@H]1CCC(=O)N1` [B-15], the AC50 on PD-L1 (setting [1]) was found to be 9.55 nM.
`COc1nc(-c2cccc(-c3cccc4c3CC[C@@H]4Oc3nc(OCc4cncc(C#N)c4)c(CN4CC[C@@H](C(=O)O)C4)cc3Cl)c2Cl)ccc1CNC[C@@H]1CCC(=O)N1` [B-66]: at PD-L1 (setting [1]), the AC50 was determined as 38.1 nM.
Same read-out and setting: in the case of `COc1nc(-c2cccc(-c3cccc4c3CC[C@@H]4Oc3nc(OCC#N)c(CN4CC5(C(=O)O)CCC4CC5)cc3Cl)c2Cl)ccc1CNC[C@@H]1CCC(=O)N1` [B-55] it was 10.7 nM.
On to `COc1nc(-c2cccc(-c3cccc4c3CC[C@@H]4Oc3nc(OC)c(CN4CC[C@@H](C(=O)NS(C)(=O)=O)C4)cc3Cl)c2Cl)ccc1CN1CC(C)(O)C1` [B-76], for which the AC50 on PD-L1 (setting [1]) worked out at 83.2 nM.
Consider `COc1nc(-c2cccc(-c3cccc4c3CC[C@@H]4Oc3nc(OC)c(CN4CCC[C@@]4(C)C(=O)O)cc3Cl)c2Cl)ccc1CNC[C@@H]1CCC(=O)N1` [B-17], for which the AC50 at PD-L1 (setting [1]) is 4.29 nM.
Same read-out and setting: in the case of `CCOc1nc(O[C@H]2CCc3c(-c4cccc(-c5ccc(CNC[C@@H]6CCC(=O)N6)c(OC)n5)c4Cl)cccc32)c(Cl)cc1CN1CC[C@H](C(=O)O)C1` [B-47] it was 27.4 nM; in that of `COc1nc(-c2cccc(-c3cccc4c3CC[C@@H]4Oc3nc(OC)c(CN4CC[C@@H](C(=O)NS(C)(=O)=O)C4)cc3Cl)c2Cl)ccc1CNC[C@@H]1CCC(=O)N1` [B-113], 29.9 nM; in that of `COc1nc(-c2cccc(-c3cccc4c3CC[C@@H]4Oc3nc(OCc4cncc(C#N)c4)c(CN4CC5(C(=O)O)CCC4CC5)cc3Cl)c2Cl)ccc1CNC[C@@H]1CCC(=O)N1` [B-67], 30.3 nM.
In the case of `COC(=O)[C@@H]1CCN(Cc2cc(Cl)c(O[C@H]3CCc4c(-c5cccc(-c6ccc(CNC[C@@H]7CCC(=O)N7)c(OC)n6)c5Cl)cccc43)nc2OC)C1` [B-108], the AC50 on PD-L1 (setting [1]) turned out to be 696 nM.
In the case of `COc1nc(-c2cccc(-c3cccc4c3CC[C@@H]4Oc3nc(OC)c(CN4CCC[C@@H](C(=O)NS(C)(=O)=O)C4)cc3Cl)c2Cl)ccc1CNC[C@@H]1CCC(=O)N1` [B-109], on PD-L1 (setting [1]), the AC50 amounted to 40.9 nM.
Same read-out and setting: in the case of `COc1nc(-c2cccc(-c3cccc4c3CC[C@@H]4Oc3nc(OC)c(CN4CC(C(=O)O)C4)cc3Cl)c2Cl)ccc1CN1CC(C)(O)C1` [B-100] it was 103 nM; in that of `COc1nc(-c2cccc(-c3cccc4c3CC[C@@H]4Oc3nc(OCc4cncc(F)c4)c(CN4CC5(C(=O)O)CCC4CC5)cc3Cl)c2Cl)ccc1CNC[C@@H]1CCC(=O)N1` [B-33], 14.7 nM; in that of `COc1nc(-c2cccc(-c3cccc4c3CC[C@@H]4Oc3nc(OC)c(CN4CCC[C@@H]4C(=O)O)cc3Cl)c2Cl)ccc1CNC[C@@H]1CCC(=O)N1` [B-16], 24.5 nM.
The same measure, in the same setting: in the case of `COc1nc(-c2cccc(-c3cccc4c3CC[C@@H]4Oc3nc(OC(F)F)c(CN4CC5(C(=O)O)CCC4CC5)cc3Cl)c2Cl)ccc1CNC[C@@H]1CCC(=O)N1` [B-40] it was 48.6 nM.
Still for that read-out and setting: under `COc1nc(-c2cccc(-c3cccc4c3CC[C@@H]4Oc3nc(OC)c(CN4CC[C@@H](C(=O)NS(=O)(=O)C(F)F)C4)cc3Cl)c2Cl)ccc1CNC[C@@H]1CCC(=O)N1` [B-111] stands 139 nM; under `CCOc1nc(O[C@H]2CCc3c(-c4cccc(-c5ccc(CNC[C@@H]6CCC(=O)N6)c(OC)n5)c4Cl)cccc32)c(Cl)cc1CN1CC2(C(=O)O)CCC1CC2` [B-46], 14.7 nM; under `COc1nc(-c2cccc(-c3cccc4c3CC[C@@H]4Oc3nc(OC)c(CNC4(C(=O)O)CCC4)cc3Cl)c2Cl)ccc1CNC[C@@H]1CCC(=O)N1` [B-35], 9.06 nM.
Take `CCOC(=O)C1CN(Cc2cc(Cl)c(O[C@H]3CCc4c(-c5cccc(-c6ccc(CNC[C@@H]7CCC(=O)N7)c(OC)n6)c5Cl)cccc43)nc2OC)C1` [B-105]: the AC50 on PD-L1 (setting [1]) was 783 nM.
`COc1nc(-c2cccc(-c3cccc4c3CC[C@@H]4Oc3nc(OCc4cncc(C#N)c4)c(CN4CC[C@H](C(=O)O)C4)cc3Cl)c2Cl)ccc1CNC[C@@H]1CCC(=O)N1` [B-65]: at PD-L1 (setting [1]), the AC50 worked out at 15.3 nM.
Same read-out and setting: under `CCS(=O)(=O)NC(=O)[C@@H]1CCN(Cc2cc(Cl)c(O[C@H]3CCc4c(-c5cccc(-c6ccc(CNC[C@@H]7CCC(=O)N7)c(OC)n6)c5Cl)cccc43)nc2OC)C1` [B-112] stands 170 nM.
Turning to `COc1nc(-c2cccc(-c3cccc4c3CC[C@@H]4Nc3nc(OC)c(CNC4(C(=O)O)CC4)cc3C(F)(F)F)c2Cl)ccc1CN1CC2(CCC(=O)N2)C1` [A-23], the IC50 on PD-1/PD-L1 (setting [4]) was no more than 0.064 nM.
For `COc1nc(O[C@H]2CCc3c(-c4cccc(-c5cnc([C@@H](C)NC[C@H]6CCC(=O)N6)c(OC)n5)c4Cl)cccc32)c(Cl)cc1CN1CC[C@@H](C(=O)O)C1` [B-79], on PD-L1 (setting [1]), the AC50 is 70.8 nM.
Still for that read-out and setting: under `COc1nc(-c2cccc(-c3cccc4c3CC[C@@H]4Oc3nc(OC)c(CN4CC[C@H](C(=O)NS(C)(=O)=O)C4)cc3Cl)c2Cl)ccc1CNC[C@@H]1CCC(=O)N1` [B-84] stands 37.3 nM; under `COc1nc(-c2cccc(-c3cccc4c3CC[C@@H]4Oc3nc(OC)c(CNC4(C(=O)O)CC4)cc3Cl)c2Cl)ccc1CNC[C@@H]1CCC(=O)N1` [B-54], 10.2 nM.
`COc1nc(-c2cccc(-c3cccc4c3CC[C@@H]4Oc3nc(OCc4cncc(Cl)c4)c(CNC4(C(=O)O)CC4)cc3C(F)(F)F)c2Cl)ccc1CNC[C@@H]1CCC(=O)N1` [B-29]: the AC50 on PD-L1 (setting [1]) worked out at 4.08 nM.
Consider `COc1nc(-c2cccc(-c3cccc4c3CC[C@@H]4Oc3nc(OC)c(CN4CC(C(=O)NS(C)(=O)=O)C4)cc3Cl)c2Cl)ccc1CN1CC(C)(O)C1` [B-75], for which the AC50 at PD-L1 (setting [1]) amounted to 93.8 nM.
Turning to `COc1nc(-c2cccc(-c3cccc4c3CC[C@@H]4Oc3nc(OC)c(CN4CC(C(=O)NS(=O)(=O)C(F)F)C4)cc3Cl)c2Cl)ccc1CNC[C@@H]1CCC(=O)N1` [B-110], the AC50 on PD-L1 (setting [1]) is 97.1 nM.
With `COc1nc(-c2cccc(-c3cccc4c3CC[C@@H]4Oc3nc(OC)c(CN4CCC[C@H]4C(=O)O)cc3Cl)c2Cl)ccc1CNC[C@@H]1CCC(=O)N1` [B-18], the AC50 at PD-L1 (setting [1]) is 17.5 nM.
